Results published in patent publication US8772480B2, “Inhibitors of PI3 kinase and/or mTOR” (priority 2009, dated 2014).

test system: phosphorylation of Akt at Serine 473 in U87 MG cells; assay: cells; details: Homo sapiens, U-87 MG, 2 h, read-out: U87Cell IC50

| SMILES | IC50 |
| --- | --- |
| Cc1nc(N)nc(-c2cccnc2Nc2cnc(Cl)c(N)c2)n1 [Example 265, N5-(3-(4-Amino-6-Methyl-1,3,5-Triazin-2-yl)Pyridin-2-yl)-2-Chloropyridine-3,5-Diamine] | 349 nM |

same assay, conditions: Homo sapiens, U-87 MG, 2 h, read-out: U87Cell IC50, pAkt (Ser 473), U87 MG cells, two hours with compound

| IC50 | SMILES |
| --- | --- |
| 130 nM | Cc1nc(-c2cc(Cc3ccc(S(C)(=O)=O)cc3)cnc2Nc2cccc3[nH]ncc23)c2nc[nH]c2n1 [Example 104, N-(3-(2-methyl-9H-purin-6-yl)-5-(4-(methylsulfonyl)benzyl)pyridin-2-yl)-1H-indazol-4-amine] |

target: PI3Kα (Homo sapiens (Human), UniProt P42336); assay: not given; details: read-out: PI3Kα AlphaScreen ® Ki
Sequence (P42336 whole entry): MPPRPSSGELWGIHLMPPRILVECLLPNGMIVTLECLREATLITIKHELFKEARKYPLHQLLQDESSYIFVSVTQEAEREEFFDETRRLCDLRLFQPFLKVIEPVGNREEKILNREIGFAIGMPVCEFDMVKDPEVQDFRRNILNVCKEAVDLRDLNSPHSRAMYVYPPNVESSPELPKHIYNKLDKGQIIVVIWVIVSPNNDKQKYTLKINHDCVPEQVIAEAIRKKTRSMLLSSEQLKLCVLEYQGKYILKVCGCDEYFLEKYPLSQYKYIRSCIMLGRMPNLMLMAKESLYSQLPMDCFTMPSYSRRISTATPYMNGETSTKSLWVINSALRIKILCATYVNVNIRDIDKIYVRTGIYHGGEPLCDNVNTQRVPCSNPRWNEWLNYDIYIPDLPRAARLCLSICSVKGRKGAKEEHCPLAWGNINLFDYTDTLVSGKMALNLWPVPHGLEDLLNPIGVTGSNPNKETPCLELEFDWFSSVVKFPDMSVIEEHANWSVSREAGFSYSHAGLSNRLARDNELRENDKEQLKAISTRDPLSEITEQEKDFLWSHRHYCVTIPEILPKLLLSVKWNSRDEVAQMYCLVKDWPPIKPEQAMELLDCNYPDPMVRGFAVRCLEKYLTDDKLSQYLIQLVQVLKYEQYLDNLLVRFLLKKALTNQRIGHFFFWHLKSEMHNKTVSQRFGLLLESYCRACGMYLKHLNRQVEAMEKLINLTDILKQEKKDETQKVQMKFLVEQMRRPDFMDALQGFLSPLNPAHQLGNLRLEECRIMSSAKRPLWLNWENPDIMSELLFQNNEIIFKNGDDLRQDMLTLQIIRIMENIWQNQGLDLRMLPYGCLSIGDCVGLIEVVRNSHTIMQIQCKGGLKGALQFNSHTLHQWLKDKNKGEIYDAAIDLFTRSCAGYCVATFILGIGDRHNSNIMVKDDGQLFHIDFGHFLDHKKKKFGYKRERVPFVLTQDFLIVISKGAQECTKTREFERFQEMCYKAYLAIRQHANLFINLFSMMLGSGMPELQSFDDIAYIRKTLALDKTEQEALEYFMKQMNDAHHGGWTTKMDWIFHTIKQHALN
Sequence (P27986 whole entry partner): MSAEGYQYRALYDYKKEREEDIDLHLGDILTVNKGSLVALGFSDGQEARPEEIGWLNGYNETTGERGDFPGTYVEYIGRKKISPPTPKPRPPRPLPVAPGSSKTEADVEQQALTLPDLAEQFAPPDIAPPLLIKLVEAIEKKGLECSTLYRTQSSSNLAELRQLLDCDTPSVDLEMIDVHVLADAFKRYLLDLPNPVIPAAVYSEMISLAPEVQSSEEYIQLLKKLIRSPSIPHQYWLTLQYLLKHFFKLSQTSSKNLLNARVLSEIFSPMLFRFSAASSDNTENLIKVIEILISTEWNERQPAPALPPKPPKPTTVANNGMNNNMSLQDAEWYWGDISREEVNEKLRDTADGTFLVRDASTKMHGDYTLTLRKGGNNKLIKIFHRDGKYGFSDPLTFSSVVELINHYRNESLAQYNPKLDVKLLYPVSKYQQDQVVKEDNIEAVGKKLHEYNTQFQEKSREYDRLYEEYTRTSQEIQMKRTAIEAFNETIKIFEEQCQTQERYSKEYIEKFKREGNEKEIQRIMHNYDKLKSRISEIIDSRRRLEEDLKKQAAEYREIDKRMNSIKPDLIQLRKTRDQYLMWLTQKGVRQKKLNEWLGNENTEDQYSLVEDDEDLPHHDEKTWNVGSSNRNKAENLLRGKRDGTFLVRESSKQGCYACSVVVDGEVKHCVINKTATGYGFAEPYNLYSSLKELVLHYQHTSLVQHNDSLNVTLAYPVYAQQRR

| Ki | SMILES |
| --- | --- |
| 4 nM | Cc1nc(N)nc(-c2cc(CN3CCOCC3)cnc2Nc2cnc(Cl)c(NS(C)(=O)=O)c2)n1 [Example 332, N-(5-(3-(4-Amino-6-Methyl-1,3,5-Triazin-2-yl)-5-(Morpholinomethyl)Pyridin-2-Ylamino)-2-Chloropyridin-3-yl)Methanesulfonamide] |
| 15 nM | COc1cncc(Nc2ncc(C(C)(C)O)cc2-c2nc(C)nc(N)n2)c1 [Example 353, 2-(5-(4-Amino-6-Methyl-1,3,5-Triazin-2-yl)-6-(5-Methoxypyridin-3-Ylamino)Pyridin-3-yl)Propan-2-ol] |
| 7 nM | Cc1nc(N)nc(-c2cc(CN3CCOCC3)cnc2Nc2cnc(Cl)c(NS(=O)(=O)N(C)C)c2)n1 [Example 333, N′-(5-((3-(4-Amino-6-Methyl-1,3,5-Triazin-2-yl)-5-(4-Morpholinylmethyl)-2-Pyridinyl)Amino)-2-Chloro-3-Pyridinyl)-N,N-Dimethylsulfamide] |
| 58 nM | Cc1nc(N)nc(-c2cc(C(C)(C)O)cnc2Nc2cncc(S(=O)(=O)c3ccccc3)c2)n1 [Example 356, 2-(5-(4-Amino-6-Methyl-1,3,5-Triazin-2-yl)-6-(5-(Phenylsulfonyl)Pyridin-3-Ylamino)Pyridin-3-yl)Propan-2-ol] |
| 23 nM | Cc1nc(N)nc(-c2cc(C(C)(C)O)cnc2Nc2cncc(F)c2)n1 [Example 352, 2-(5-(4-Amino-6-Methyl-1,3,5-Triazin-2-yl)-6-(5-Fluoropyridin-3-Ylamino)Pyridin-3-yl)Propan-2-ol] |
| 17 nM | COc1ncc(Nc2ncc(C(O)C(F)(F)F)cc2-c2nc(C)nc(N)n2)cc1F (stereo not drawn) [Example 314, 1-(5-(4-Amino-6-Methyl-1,3,5-Triazin-2-yl)-6-(5-Fluoro-6-Methoxypyridin-3-Ylamino)Pyridin-3-yl)-2,2,2-Trifluoroethanol] |

More lines, now with the values behind:

| SMILES | Ki |
| --- | --- |
| COc1ncc(Nc2ncc(C(C)CO)cc2-c2nc(C)nc(N)n2)cc1F (stereo not drawn) [Example 312, 2-(5-(4-amino-6-methyl-1,3,5-triazin-2-yl)-6-(5-fluoro-6-methoxypyridin-3-ylamino)pyridin-3-yl)propan-1-ol] | 2 nM |
| COc1ncc(Nc2ncc(C(C)(C)O)cc2-c2nc(C)nc(N)n2)cc1F [Example 273, 2-(5-(4-Amino-6-Methyl-1,3,5-Triazin-2-yl)-6-(5-Fluoro-6-Methoxypyridin-3-Ylamino)Pyridin-3-yl)Propan-2-ol] | 4 nM |
| COc1ccc(Nc2cnccc2-c2nc(C)nc(N)n2)cn1 [Example 115, 4-(3-(6-methoxypyridin-3-ylamino)pyridin-4-yl)-6-methyl-1,3,5-triazin-2-amine] | 868 nM |
| COc1ccc(Nc2nccnc2-c2nc(C)nc(N)n2)cn1 [Example 114, 4-(3-(6-methoxypyridin-3-ylamino)pyrazin-2-yl)-6-methyl-1,3,5-triazin-2-amine] | 327 nM |
| Nc1cc(-c2cccnc2Nc2cccc3[nH]ncc23)nc(C(F)(F)F)n1 [Example 21, N-(3-(6-Amino-2-(Trifluoromethyl)Pyrimidin-4-yl)Pyridin-2-yl)-1H-Indazol-4-Amine] | 3140 nM |
| Cc1nc(N)c(F)c(-c2cccnc2Nc2cccc3[nH]ncc23)n1 [Example 29, N-(3-(6-Amino-5-Fluoro-2-Methylpyrimidin-4-yl)Pyridin-2-yl)-1H-Indazol-4-Amine] | 802 nM |
| COc1ncc(Nc2ncc(C(C)(C)CO)cc2-c2nc(C)nc(N)n2)cc1F [Example 311, 2-(5-(4-amino-6-methyl-1,3,5-triazin-2-yl)-6-(5-fluoro-6-methoxypyridin-3-ylamino)pyridin-3-yl)-2-methylpropan-1-ol] | 8 nM |
